Laboratory results reported in publication PMC8126888 (RSC Medicinal Chemistry, 2020).
Read-outs that look alike come from different tables or passages of the source.

Columns and labels:
[1] = system: Leishmania infantum MHOM/MA(BE)/67/ITMAP263 intracellular amastigotes; test: microbe, parasite or virus in culture; settings: Macrophage, in Mus musculus
in vitro [2] = settings: human, HepG2 cells
in vitro [3] = settings: human, HFF-1 cells
physchem = settings: HPLC, Ascentis Express RP Amide column, pH 7.4, eLogD, experimental
in vitro [4] = settings: human
in vitro [5] = settings: human, microsomes, pH 7.4, HLM CLint (uL/min/mg), human liver microsomes
in vitro [6] = settings: PAMPA
in vitro [7] = settings: mouse, microsomes, pH 7.4, MLM CLint (uL/min/mg), mouse liver microsomes
[8] = system: Trypanosoma cruzi, Tulahuen CL2, beta-galactosidase strain; test: microbe, parasite or virus in culture; settings: MRC5, read-out: T. cruzi Tulahuen C4 (LacZ) IC50 (uM)
[9] = system: primary peritoneal mouse macrophages (PMM); test: cells; settings: Macrophage, read-out: PMM IC50 (uM)
[10] = read-out: L. Inf. pIC50, from L. infantum intracellular amastigote IC50 (converted)
[11] = read-out: L. infantum MHOM/MA(BE)/67/ITMAP263 intracellular amastigotes IC50 (uM), intracellular amastigotes

Row | SMILES | IC50 [1, 10] | IC50 [1, 11] | CC50 (in vitro [2]) | CC50 (in vitro [3]) | chromatographic logD (physchem) | CC50 at 3 days (in vitro [4]) | microsomal CLint at 0.5 μM (in vitro [5]) | Papp (in vitro [6]) | microsomal CLint at 0.5 μM (in vitro [7]) | IC50 [8] | IC50 [9]
1 | COc1ccc(CN2CCC(F)(F)CC2)cc1S(=O)(=O)N(Cc1ccc(F)cc1)Cc1ccc(F)cc1 [DNDI0003389116] | 3.16 µM | 3.18 µM | > 64 µM | 18.2 µM | 4.8 | > 64 µM | 984 µL/min/mg | 0.4 ×10⁻⁶ cm/s | 1760 µL/min/mg | 2.93 µM | 45.2 µM
2 | COc1ccc(S(=O)(=O)N2CCOCC2)cc1C(=O)N(Cc1ccc(F)cc1)Cc1ccc(F)cc1 [DNDI0003389643] | 17 µM | 16.9 µM | > 64 µM | > 64 µM | 3.9 | > 64 µM | 717 µL/min/mg | 4.14 ×10⁻⁶ cm/s | 610 µL/min/mg | 16.6 µM | > 64 µM
3 | CNCCOc1ccc(F)cc1S(=O)(=O)N(Cc1ccc(F)cc1)Cc1ccc(F)cc1 [DNDI0003389318] | 2.4 µM | 2.38 µM | 6.84 µM | 7.25 µM | 5.3 | 4.22 µM | 46 µL/min/mg | 0.43 ×10⁻⁶ cm/s | 84 µL/min/mg | 5.11 µM | 8 µM
4 | COc1ccc(C(=O)N2CCOCC2)cc1S(=O)(=O)N(C)Cc1ccc(F)cc1 [DNDI0003389126] | 57.5 µM | 57 µM | > 64 µM | > 64 µM | 2.7 | > 64 µM | 70 µL/min/mg | 16.6 ×10⁻⁶ cm/s | 94 µL/min/mg | 41.4 µM | > 64 µM
5 | COc1ccc(Cl)cc1S(=O)(=O)N(Cc1ccccc1)CC(N)c1ccc(F)cc1 (centres unmarked) [DNDI0003389932] | 6.46 µM | 6.39 µM | 19.5 µM | > 64 µM | 4.3 | 14 µM | 34 µL/min/mg | 0.59 ×10⁻⁶ cm/s | 239 µL/min/mg | 4.64 µM | 32 µM
6 | O=S(=O)(c1cc(N2CCOCC2)ccc1OC(F)F)N(Cc1ccc(F)cc1)Cc1ccc(F)cc1 [DNDI0003389647] | 0.501 µM | 0.5 µM | > 64 µM | 37.6 µM | 4.8 | > 64 µM | 153 µL/min/mg | 0.12 ×10⁻⁶ cm/s | 462 µL/min/mg | 5.62 µM | 45.2 µM
7 | COc1ccc(N2CCOCC2)cc1S(=O)(=O)N(Cc1ccc(F)cc1)Cc1ccc(F)cc1 [DNDI0003389118] | 0.324 µM | 0.32 µM | > 64 µM | 15.2 µM | 4.3 | > 64 µM | 82 µL/min/mg | 2.55 ×10⁻⁶ cm/s | 488 µL/min/mg | 7.91 µM | > 64 µM
8 | COc1ccc(Cl)cc1S(=O)(=O)N(Cc1ccccc1)C(CO)CO [DNDI0003389933] | 57.5 µM | 57 µM | > 64 µM | > 64 µM | 3.2 | > 64 µM | 109 µL/min/mg | 13.2 ×10⁻⁶ cm/s | 253 µL/min/mg | 14.3 µM | > 64 µM
9 | COc1ccc(N2CCN(C)CC2)cc1S(=O)(=O)N(Cc1ccc(F)cc1)Cc1ccc(F)cc1 [DNDI0003389645] | 0.398 µM | 0.4 µM | 26.8 µM | 8.45 µM | 4.4 | 28.7 µM | 152 µL/min/mg | 0.71 ×10⁻⁶ cm/s | 212 µL/min/mg | 2.8 µM | 8 µM
10 | CN(C)c1ncccc1S(=O)(=O)N(Cc1ccc(F)cc1)Cc1ccc(F)cc1 [DNDI0003389117] | 6.03 µM | 5.99 µM | 56.7 µM | 16.7 µM | 4.6 | 42.7 µM | 728 µL/min/mg | 1.18 ×10⁻⁶ cm/s | 903 µL/min/mg | 12.6 µM | > 64 µM
